Source: patent publication US9458137B2, “Substituted indol-5-ol derivatives and their therapeutical applications” (NantBioScience, Inc., priority 2012, dated 2016)

Test system: abl kinase
Assay: abl kinase inhibition assay
Assay type: biochemical

Row | Compound | % Inhibition @1 μM Abl
1 | Cc1cc2c(F)c(Oc3nc(Nc4cc(C5CC5)[nH]n4)cc(N4CCN(C)CC4)n3)ccc2[nH]1 [Example 10] | 112%
2 | Cc1cc2c(F)c(Oc3nc(Nc4cc(C5CC5)[nH]n4)cc(N4CCNCC4)n3)ccc2[nH]1 [Example 11, N-(5-cyclopropyl-1H-pyrazol-3-yl)-2-((4-fluoro-2-methyl-1H-indol-5-yl)oxy)-6-(piperazin-1-yl)pyrimidin-4-amine] | 111%
3 | Cc1cc2c(F)c(Oc3nc(Nc4cc(C5CC5)[nH]n4)cc(N4CCN(CCO)CC4)n3)ccc2[nH]1 [Example 12] | 112%
4 | Cc1cc2c(F)c(Oc3nc(Nc4cc(C5CC5)[nH]n4)cc(N4CCOCC4)n3)ccc2[nH]1 [Example 13] | 112%
5 | Cc1cc2c(F)c(Oc3nc(Nc4cc(C5CC5)[nH]n4)cc(N4CC(O)C4)n3)ccc2[nH]1 [Example 15] | 108%
6 | COC1CCN(c2cc(Nc3cc(C4CC4)[nH]n3)nc(Oc3ccc4[nH]c(C)cc4c3F)n2)C1 (stereo not drawn) [Example 16] | 103%
7 | Cc1cc2c(F)c(Oc3nc(Nc4cc(C5CC5)[nH]n4)cc(N4CCC(N(C)C)C4)n3)ccc2[nH]1 (stereo not drawn) [Example 17] | 108%
8 | CC(=O)N1CCN(c2cc(Nc3cc(C4CC4)[nH]n3)nc(Oc3ccc4[nH]c(C)cc4c3F)n2)CC1 [Example 18] | 107%
9 | Cc1cc2c(F)c(Oc3nc(Nc4cc(C5CC5)[nH]n4)cc(N4CCNC(=O)C4)n3)ccc2[nH]1 [Example 19] | 108%
10 | Cc1cc2c(F)c(Oc3nc(Nc4cc(C5CC5)[nH]n4)cc(N4C[C@@H](C)N[C@@H](C)C4)n3)ccc2[nH]1 [Example 20] | 107%
11 | Cc1cc2c(F)c(Oc3nc(Nc4cc(C5CC5)[nH]n4)cc(N4CCC(O)CC4)n3)ccc2[nH]1 [Example 21] | 107%
12 | Cc1cc2c(F)c(Oc3nc(Nc4cc(C5CC5)[nH]n4)cc(N4CCC(F)CC4)n3)ccc2[nH]1 [Example 22] | 108%
13 | Cc1cc2c(F)c(Oc3nc(Nc4cc(C5CC5)[nH]n4)cc(N4CCN(S(C)(=O)=O)CC4)n3)ccc2[nH]1 [Example 23] | 108%
14 | Cc1cc2c(F)c(Oc3nc(Nc4cc(C5CC5)[nH]n4)cc(N4CCN(c5ccccn5)CC4)n3)ccc2[nH]1 [Example 25] | 108%
15 | Cc1cc2c(F)c(Oc3nc(Nc4cc(C5CC5)[nH]n4)cc(N4CCN(c5cccnc5)CC4)n3)ccc2[nH]1 [Example 26] | 109%
16 | Cc1cc2c(F)c(Oc3nc(Nc4cc(C5CC5)[nH]n4)cc(N4CCN(c5ccncc5)CC4)n3)ccc2[nH]1 [Example 27] | 108%
17 | COCCN1CCN(c2cc(Nc3cc(C4CC4)[nH]n3)nc(Oc3ccc4[nH]c(C)cc4c3F)n2)CC1 [Example 28] | 108%
18 | Cc1cc2c(F)c(Oc3nc(Nc4cc(C5CC5)[nH]n4)cc(N4CCOC(CN(C)C)C4)n3)ccc2[nH]1 (stereo not drawn) [Example 30] | 110%
19 | CCN1CCN(c2cc(Nc3cc(C4CC4)[nH]n3)nc(Oc3ccc4[nH]c(C)cc4c3F)n2)CC1 [Example 31] | 115%
20 | Cc1cc2c(F)c(Oc3nc(Nc4cc(C5CC5)[nH]n4)cc(N4CCN(CC(F)(F)F)CC4)n3)ccc2[nH]1 [Example 38] | 108%
21 | Cc1cc2c(F)c(Oc3nc(Nc4cc(C5CC5)[nH]n4)cc(N4CCOC(CN)C4)n3)ccc2[nH]1 (stereo not drawn) [Example 39] | 110%

Row | Compound | % Inhibition @1 μM Abl
22 | CCC1CN(c2cc(Nc3cc(C4CC4)[nH]n3)nc(Oc3ccc4[nH]c(C)cc4c3F)n2)CCN1 (stereo not drawn) [Example 41] | 108%
23 | Cc1cc2c(F)c(Oc3nc(Nc4cc(C5CC5)[nH]n4)cc(N4CCN(CCN(C)C)CC4)n3)ccc2[nH]1 [Example 42] | 110%
24 | Cc1cc2c(F)c(Oc3nc(Nc4cc(C5CC5)[nH]n4)cc(N4CCNC(CO)C4)n3)ccc2[nH]1 (stereo not drawn) [Example 43] | 111%
25 | COCC1CCN(c2cc(Nc3cc(C4CC4)[nH]n3)nc(Oc3ccc4[nH]c(C)cc4c3F)n2)C1 (stereo not drawn) [Example 44] | 94%
26 | Cc1cc2c(F)c(Oc3nc(Nc4cc(C5CC5)[nH]n4)cc(N4CCN(CCF)CC4)n3)ccc2[nH]1 [Example 45] | 107%
27 | C/C=C/c1cc(Nc2cc(N3CCN(C)CC3)nc(Oc3ccc4[nH]c(C)cc4c3F)n2)n[nH]1 [Example 53] | 109%
28 | C/C=C/c1cc(Nc2cc(N3CCN(CCOC)CC3)nc(Oc3ccc4[nH]c(C)cc4c3F)n2)n[nH]1 [Example 54] | 108%
29 | C/C=C/c1cc(Nc2cc(N3CCN(S(C)(=O)=O)CC3)nc(Oc3ccc4[nH]c(C)cc4c3F)n2)n[nH]1 [Example 55] | 110%
30 | C/C=C/c1cc(Nc2cc(N3CCN(C(C)=O)CC3)nc(Oc3ccc4[nH]c(C)cc4c3F)n2)n[nH]1 [Example 56] | 111%
31 | C/C=C/c1cc(Nc2cc(N3CCS(=O)(=O)CC3)nc(Oc3ccc4[nH]c(C)cc4c3F)n2)n[nH]1 [Example 57] | 111%
32 | C/C=C/c1cc(Nc2cc(N3CCC(OC)CC3)nc(Oc3ccc4[nH]c(C)cc4c3F)n2)n[nH]1 [Example 58] | 112%
33 | C/C=C/c1cc(Nc2cc(N3CCC(O)CC3)nc(Oc3ccc4[nH]c(C)cc4c3F)n2)n[nH]1 [Example 59] | 112%
34 | C/C=C/c1cc(Nc2cc(N3CCC(OC)C3)nc(Oc3ccc4[nH]c(C)cc4c3F)n2)n[nH]1 (stereo not drawn) [Example 60] | 111%
35 | C/C=C/c1cc(Nc2cc(N3CCC(O)C3)nc(Oc3ccc4[nH]c(C)cc4c3F)n2)n[nH]1 (stereo not drawn) [Example 61] | 112%
36 | C/C=C/c1cc(Nc2cc(N3CCC(N(CC)CC)C3)nc(Oc3ccc4[nH]c(C)cc4c3F)n2)n[nH]1 (stereo not drawn) [Example 62] | 111%
37 | C/C=C/c1cc(Nc2cc(N3CCOCC3)nc(Oc3ccc4[nH]c(C)cc4c3F)n2)n[nH]1 [Example 67] | 112%
38 | C/C=C/c1cc(Nc2cc(N3CCNCC3)nc(Oc3ccc4[nH]c(C)cc4c3F)n2)n[nH]1 [Example 68] | 107%
39 | C/C=C/c1cc(Nc2cc(N3CCN(CCF)CC3)nc(Oc3ccc4[nH]c(C)cc4c3F)n2)n[nH]1 [Example 74] | 111%
40 | Cc1cc2c(F)c(Oc3nc(Nc4cc(C5CC5)[nH]n4)cc(N4CCN(C)CC4)n3)cc(F)c2[nH]1 [Example 81] | 110%
41 | Cc1cc2c(F)c(Oc3nc(Nc4cc(C5CC5)[nH]n4)cc(N4CCNCC4)n3)cc(F)c2[nH]1 [Example 82] | 106%
42 | Cc1cc2c(F)c(Oc3nc(Nc4cc(C5CC5)[nH]n4)cc(N4CCN(CCO)CC4)n3)cc(F)c2[nH]1 [Example 83] | 110%

Row | Compound | % Inhibition @1 μM Abl
43 | Cc1cc2c(F)c(Oc3nc(Nc4cc(C5CC5)[nH]n4)cc(N4CCOCC4)n3)cc(F)c2[nH]1 [Example 84] | 103%
44 | C/C=C/c1cc(Nc2cc(N3CCN(C)CC3)nc(Oc3cc(F)c4[nH]c(C)cc4c3F)n2)n[nH]1 [Example 87] | 112%
45 | C/C=C/c1cc(Nc2cc(N3CCN(CCO)CC3)nc(Oc3cc(F)c4[nH]c(C)cc4c3F)n2)n[nH]1 [Example 88] | 113%
46 | C/C=C/c1cc(Nc2cc(N3CCOCC3)nc(Oc3cc(F)c4[nH]c(C)cc4c3F)n2)n[nH]1 [Example 89] | 112%
47 | C/C=C/c1cc(Nc2cc(N3CCNCC3)nc(Oc3cc(F)c4[nH]c(C)cc4c3F)n2)n[nH]1 [Example 90] | 112%
48 | C/C=C/c1cc(Nc2cc(N3CCC(O)C3)nc(Oc3cc(F)c4[nH]c(C)cc4c3F)n2)n[nH]1 (stereo not drawn) [Example 92] | 111%
49 | C/C=C/c1cc(Nc2cc(N3CCC(OC)C3)nc(Oc3cc(F)c4[nH]c(C)cc4c3F)n2)n[nH]1 (stereo not drawn) [Example 93] | 111%
50 | C/C=C/c1cc(Nc2cc(N3CCC(N(CC)CC)C3)nc(Oc3cc(F)c4[nH]c(C)cc4c3F)n2)n[nH]1 (stereo not drawn) [Example 94] | 111%
51 | C/C=C/c1cc(Nc2cc(N3CCC(O)CC3)nc(Oc3cc(F)c4[nH]c(C)cc4c3F)n2)n[nH]1 [Example 95] | 110%
52 | C/C=C/c1cc(Nc2cc(N3CCC(OC)CC3)nc(Oc3cc(F)c4[nH]c(C)cc4c3F)n2)n[nH]1 [Example 96] | 110%
53 | C/C=C/c1cc(Nc2cc(N3CCN(S(C)(=O)=O)CC3)nc(Oc3cc(F)c4[nH]c(C)cc4c3F)n2)n[nH]1 [Example 98] | 111%
54 | C/C=C/c1cc(Nc2cc(N3CCN(CC)CC3)nc(Oc3cc(F)c4[nH]c(C)cc4c3F)n2)n[nH]1 [Example 99] | 113%
55 | CCN1CCN(c2cc(Nc3cc(C)[nH]n3)nc(Oc3cc(F)c4[nH]c(C)cc4c3F)n2)CC1 [Example 103] | 113%
56 | Cc1cc(Nc2cc(N3CCN(CCO)CC3)nc(Oc3cc(F)c4[nH]c(C)cc4c3F)n2)n[nH]1 [Example 105] | 112%
57 | Cc1cc(Nc2cc(N3CCNCC3)nc(Oc3cc(F)c4[nH]c(C)cc4c3F)n2)n[nH]1 [Example 106] | 109%
58 | Cc1cc(Nc2cc(N3CCOCC3)nc(Oc3cc(F)c4[nH]c(C)cc4c3F)n2)n[nH]1 [Example 107] | 111%
59 | C/C=C/c1cc(Nc2cc(N3CCN(C)CC3)nc(Oc3ccc4[nH]c(C)cc4c3Cl)n2)n[nH]1 [Example 112] | 113%
60 | C/C=C/c1cc(Nc2cc(N3CCN(C)CC3)nc(Oc3ccc4c(cc(C)n4C)c3F)n2)n[nH]1 [Example 120] | 115%
61 | C/C=C/c1cc(Nc2cc(N3CCOCC3)nc(Oc3ccc4c(cc(C)n4C)c3F)n2)n[nH]1 [Example 121] | 116%
62 | Cc1cc2c(F)c(Oc3nc(Nc4cc(C5CC5)[nH]n4)cc(N4CCN(C)CC4)n3)ccc2n1C [Example 122] | 109%
63 | Cc1cc2c(F)c(Oc3nc(Nc4cc(C5CC5)[nH]n4)cc(N4CCOCC4)n3)ccc2n1C [Example 123] | 114%
